In brackets after ≈: the same amount, converted by molar mass.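 1) Cells in 96-well plates. 2) Compound, 48 h, 5 concentrations. 3) Linear interpolation between surrounding doses. 4) Unreached endpoint = highest concentration. GI50 marks 50% less growth. The concentration for full growth arrest is given as TGI.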
Legend:
Assay in all cases: DTP human tumour cell line panel, 48 h
BT-549 breast = tested on: BT-549 breast
K-562 leukemia = tested on: K-562 leukemia
M14 melanoma = tested on: M14 melanoma
MDA-MB-435 = tested on: MDA-MB-435
NCI/ADR-RES ovarian = tested on: NCI/ADR-RES ovarian
SF-295 CNS = tested on: SF-295 CNS
SK-MEL-2 melanoma = tested on: SK-MEL-2 melanoma
T-47D breast = tested on: T-47D breast
UACC-257 melanoma = tested on: UACC-257 melanoma
UO-31 renal = tested on: UO-31 renal

SMILES	GI50 (BT-549 breast) [µg/mL]	TGI (BT-549 breast)	GI50 (K-562 leukemia) [µg/mL]	TGI (K-562 leukemia)	GI50 (M14 melanoma) [µg/mL]	TGI (M14 melanoma)	GI50 (MDA-MB-435) [µg/mL]	TGI (MDA-MB-435)	GI50 (NCI/ADR-RES ovarian) [µg/mL]	TGI (NCI/ADR-RES ovarian)	GI50 (SF-295 CNS) [µg/mL]	TGI (SF-295 CNS)	GI50 (SK-MEL-2 melanoma) [µg/mL]	TGI (SK-MEL-2 melanoma)	GI50 (T-47D breast) [µg/mL]	TGI (T-47D breast)	GI50 (UACC-257 melanoma) [µg/mL]	TGI (UACC-257 melanoma)	GI50 (UO-31 renal) [µg/mL]	TGI (UO-31 renal)
C=C1C(=O)O[C@H]2[C@H]1CC(=O)/C(C)=C\CC[C@@]1(C)O[C@@H]21	3.41 (≈ 13 µM)	7 µg/mL	0.842 (≈ 3.21 µM)	4.15 µg/mL	3.38 (≈ 12.9 µM)	11.8 µg/mL	2.98 (≈ 11.3 µM)	7.14 µg/mL	1.1 (≈ 4.18 µM)	4.45 µg/mL	5.55 (≈ 21.2 µM)	12.4 µg/mL	3.99 (≈ 15.2 µM)	8.47 µg/mL	2.57 (≈ 9.8 µM)	9.53 µg/mL	3.39 (≈ 12.9 µM)	6.99 µg/mL	2.61 (≈ 9.95 µM)	5.85 µg/mL
O=C(CC(=O)c1ccccc1NC1=Cc2ccccc2C(=O)C1=O)C(=O)NC1=C(Cl)C(=O)c2ccccc2C1=O		9.14 µM		9.7 µM		4.12 µM		3.36 µM		7 µM		11.7 µM		6.6 µM		30.6 µM		4.49 µM		20.4 µM
N#Cc1ccc2oc3ccc(C#N)cc3c(=O)c2c1		53.7 µM		> 100 µM		> 100 µM		> 100 µM		> 100 µM		47.1 µM		37.4 µM		> 100 µM		> 100 µM		> 100 µM
